In brackets after ≈: the same amount, converted by molar mass. Read-outs that look alike come from different tables or passages of the source.
What was measured:
T. b. brucei 427 = assay: In vitro compound sensitivity assay (resazurin viability); format: cell-based; details: Trypanosoma brucei
Source text: (§1) The bloodstream-form T. b. brucei 427 strain was obtained from Dr. K. Stuart (Seattle Biomedical Research Institute, Seattle, WA) and was used for routine assessment of compound sensitivity in vitro. Additional strains used in vitro include T. b. rhodesiense STIB900, isolated in 1992 from a patient in Tanzania, and T. b. gambiense 108R, isolated from a patient in Democratic Republic of Congo in 2005. T. b. brucei EATRO 110 was a generous gift from the late William Trager of the Rockefeller University. T. b. brucei TREU 667 strains were kindly provided by F. W. Jennings at the University of Glasgow. Both T. b. brucei EATRO 110 and TREU 667 were cultured according to previously described conditions and used for in vivo studies.[18], [19]
(§2) T. b. brucei was cultured in complete HMI-9 medium,[20] which contains 10% fetal bovine serum (FBS) (Invitrogen, Carlsbad, CA), 10% Serum Plus medium (SAFC Biosciences, Lenexa, KS), and 100 units/mL penicillin and 0.1 mg/mL streptomycin. The trypanosomes were propagated in T-25 vented cap flasks (Corning Inc., Lowell, MA) at 37°C and 5% CO2 with humidity. To ensure log growth phase, trypanosomes were sub-cultured at appropriate dilutions (typically 1∶100) every 2–3 days in fresh HMI-9 medium. T. b. rhodesiense parasites were grown in MEM medium with Earle's salts supplemented with 15% horse serum. For T. b. gambiense, the MEM medium was supplemented with 5% heat-inactivated fetal calf serum (FCS) and 15% human serum.[21] L929 mouse fibroblast cells (ATCC CCL1, American Type Culture Collection, Rockville, MD) were used to determine parasite versus mammalian cell selectivity. Cells were cultured in Dulbecco's Modified Eagle Medium (DMEM), supplemented with 10% FBS, L-glutamine and 100 units/mL penicillin and 0.1 mg/mL streptomycin. MDCKII-hMDR1 cells were generously provided by P. Borst at the Netherlands Kancer Institute. Cells were cultured in DMEM with Glutamax, 10% (v/v) FBS, and 100 units/mL penicillin and 0.1 mg/mL streptomycin. Cell monolayers were fed with cell culture media 24 h after seeding and used for permeability studies 3 days later.
(§3) Compounds to be tested were serially diluted in DMSO and added to 96-well plates to give final concentrations ranging from 5 to 0.01 µg/mL. T. b. brucei parasites in the log phase of growth were diluted in HMI-9 media and added to each well for a final concentration of 1×10^4 parasites per well. For the sensitivity assays using T. b. rhodesiense and T. b. gambiense, pararasites were cultured in MEM supplemented with Baltz components (8), diluted in the aforementioned culture media, and added to each well at a density of 1×10^3 cells/well. The final concentration of DMSO was 0.5% and the total volume was 100 µL/well. After a 72 h incubation, resazurin (Sigma-Aldrich, St. Louis, MO) was added to each well [20 µL of 25 mg/100 mL stock in phosphate buffered saline (PBS)] and incubated for an additional 4–6 h.[22] To assess cell viability, fluorescence was quantified using an EnVision Multilabel Plate Reader (Perkin Elmer, Waltham, MA) at an excitation wavelength of 530 nm and emission of 590 nm. Triplicate data points were averaged to generate sigmoidal dose-response curves and determine IC50 values using XLfit curve fitting software from IDBS (Guilford, UK). The IC50 is defined as the amount of compound required to decrease parasite or cell viability by 50% compared to those grown in the absence of the test compound. […]

T. b. gambiense 108R = assay: as above; format: cell-based; details: Trypanosoma brucei, 72 h incubation, n = 1
Source text: as §1, §2, §3

[1] = test system: T. b. rhodesiense STIB 900; assay: as above; format: cell-based; details: Trypanosoma brucei; 72 h incubation; n = 1
Source text: as §1, §2, §3

[2] = Metabolism in primary hepatocytes; format: in vitro ADME, rat or dog; details: over 12 h
[3] = Tolerability in mice during efficacy studies; format: in vivo; details: doses up to 100 mg/kg BID (200 mg/kg/day), highest dose administered
[4] = Pharmacokinetics in uninfected mice; format: in vivo, mouse; details: for Kp: read-out: brain to plasma ratio based on AUC0–24 h; for AUC(0-t): read-out: AUC0–24 h
Protocol: The blood distribution, CNS disposition and pharmacokinetics of SCYX-7158 were evaluated in infected or non-infected rodents following intravenous or oral administration of compounds. Pharmacokinetics and bioavailability of SCYX-7158 were also evaluated in non-infected beagle dogs and cynomolgus monkeys. In-life phases of non-infected rodent studies were performed at Vivisource (Waltham, MA); studies in non-naïve cynomolgus monkeys were performed by SNBL USA (Everett, WA). Male CD-1 mice (∼25 g), male Sprague-Dawley rats (∼225 g), or male cynomolgus monkeys (∼3–5 kg) were administered test article by either bolus intravenous injection (IV) or oral gavage. Animals in the IV groups received a single 2 mg/kg IV dose. Animals received oral doses of test articles as either single or twice daily doses ranging from 8 mg/kg to 50 mg/kg. All doses were administered as clear colorless solutions in either 50% (v/v) PEG 400: 20% (v/v) ethanol: 30% (v/v) carboxymethylcellulose (0.5% w/v in sterile water for injection) or 2% (v/v) ethanol: 5% (w/v) dextrose in sterile water for injection. […] For pharmacokinetic analysis, blood samples were collected from mice via cardiac puncture under terminal anaesthesia. Serial blood samples were collected from rats via a vascular access port located in the lateral saphenous vein. Mice and rats were euthanized in a CO2 chamber before collection of terminal blood samples or brain tissue. Blood samples were collected into polypropylene tubes containing K2EDTA anticoagulant and stored on ice until centrifuged for the preparation of plasma. Plasma was stored at −70°C. Whole brains were collected following decapitation, blotted dry, placed into polypropylene containers and then immediately frozen at approximately −70°C. CSF was collected from rats via cisterna magna puncture, placed in sterile polypropylene tubes, and stored at approximately −70°C. […] Treated samples were gently mixed at room temperature for 10 min, and then centrifuged at approximately 3000×g for 15 min at 15°C. The supernatants were transferred to 96-well plates or HPLC vials for analysis by LC-MS/MS. Pharmacokinetic parameters were calculated from composite mean plasma or tissue data using non-compartmental (oral and intravenous routes) and bi-exponential (intravenous route) analyses in Microsoft Excel.

CC1(C)OB(O)c2cc(NC(=O)c3ccc(F)cc3C(F)(F)F)ccc21 [SCYX-7158]
IC50 (T. b. brucei 427; 72 h incubation, n = 9): 0.292 ± 0.019 µg/mL (≈ 0.795 µM) | MIC (T. b. brucei 427; T. b. brucei S427, visual inspection): 0.6 µg/mL (≈ 1.63 µM) | IC50 (T. b. gambiense 108R): 0.165 µg/mL (≈ 0.449 µM) | IC50 [1]: 0.294 µg/mL (≈ 0.801 µM) | fraction of SCYX-7158 metabolized [2]: less than 5% | tolerability [3]: well tolerated | brain AUC0–24 h ([4]; 13.4 mg/kg oral, brain): 31400 ng·h/mL | time of Cmax ([4]; 13.4 mg/kg oral, plasma): 6 h | brain AUC0–24 h ([4]; 26 mg/kg oral, brain): 68000 ng·h/mL | Kp ([4]; male, CD-1, mouse, brain and plasma, 13.4 mg/kg oral): 0.38 | Kp ([4]; male, CD-1, mouse, brain/plasma, 26 mg/kg oral): 0.6 | bioavailability ([4]; male, CD-1, mouse, plasma, 13.4 mg/kg oral, read-out: absolute oral bioavailability): 55% | CL/F ([4]; male, CD-1, mouse, plasma, 13.4 mg/kg oral, read-out: oral clearance (Cl/F) (converted)): 2.72 mL/min/kg | AUC(0-t) ([4]; male, CD-1, mouse, 4.3 mg/kg intravenous, plasma): 48000 ng·h/mL | half-life ([4]; male, CD-1, mouse, 4.3 mg/kg intravenous, plasma, read-out: apparent elimination half-life (t1/2) (converted)): 26.6 h | Cmax ([4]; male, CD-1, mouse, 13.4 mg/kg oral, brain, read-out: Cmax in brain tissue): 4620 ng/mL | AUC(0-t) ([4]; male, CD-1, mouse, 13.4 mg/kg oral, plasma): 82000 ng·h/mL | Cmax ([4]; male, CD-1, mouse, 13.4 mg/kg oral, plasma, read-out: Cmax): 6960 ng/mL | Cmax ([4]; male, CD-1, mouse, 26 mg/kg oral, brain, read-out: Cmax in brain tissue): 8100 ng/mL | AUC(0-t) ([4]; male, CD-1, mouse, 26 mg/kg oral, plasma): 113000 ng·h/mL | Cmax ([4]; male, CD-1, mouse, 26 mg/kg oral, plasma, read-out: Cmax): 9800 ng/mL
